The conditions of series [1]: pig, in vivo.
Series [2] deals with Vascular smooth muscle cells (BO54). Description: Scratch-migration assay. In kind it is cell-based, baboon. Details: key: −=no migration; +1=minimal; +2=mild; +3=moderate; +4=marked (maximum density; limit of cell contact inhibition) migration. As for the experimental part:
Vascular smooth muscle cells (BO54) were derived from explants of baboon aortic smooth muscle, as described in Example 10. The cells were grown in flat bottom, six well tissue culture plates, which hold about 5 ml of medium. The vascular smooth muscle cells were plated at 200,000 cells/well and placed at 37° C. in a humidified 5% CO2 incubator for 18 hours. The wells were then scratched with a sterile portion of a single edge razor blade that was held by clamp or pliers and was brought aseptically into contact with the bottom of the well at a 90° angle. The cells from a small area along the scratch were removed by a sterile cotton tipped applicator while the blade was in contact with the bottom of the well. After incubation, the presence of cells in the “scratched” area is indicative of cell migration across the scratch line.
Briefly, a stock solution of cytochalasin B (Sigma Chemical Co.) in dimethyl sulfoxide (DMSO) at 1 mg/ml was prepared. Test dilutions of cytochalasin B or control medium were added. Each experiment included two sets of plates:
A set: Test agent exposure for 1, 3, 6, 8 and 10 days only; and
B set: Test agent exposure for 1, 3, 6, 8 and 10 days, followed by a seven day recovery time with control medium.
Both sets of plates were fixed (10% formalin in PBS) and stained (0.02% crystal violet) at the end of the timed exposures. Test concentrations for cytochalasin B were 1, 0.1 and 0.01 μg/ml, and a negative medium control was included. Fresh medium and drug were supplied 3 times per week.
In this Table, “M” indicates Migration Grade. wherein −=no migration; +1=minimal; +2=mild; +3=moderate; and +4=marked (maximum density; limit of cell contact inhibition) migration of vascular smooth muscle cells into the cleared area adjacent to the scratch. In this Table, “T” denotes a morphological Toxicity Grade, wherein −=no toxicity; +1=minimal; +2=mild; +3=moderate; and +4=marked toxicity. The migration results are expressed as “Grade in the Cleared Area of the Well/Grade in an Undisturbed Region of the Well.” The toxicity values represent a grade for all cells in each well.

Each structure is given as a SMILES string.

This is an account of results in patent US8158670B2 (priority 1996, dated 2012).

Regarding `C=C1[C@@H](C)[C@H]2[C@H](Cc3ccccc3)NC(=O)[C@]23OC(=O)/C=C/[C@H](O)CCC[C@@H](C)C/C=C/[C@H]3[C@@H]1O` [cytochalasin B], the “incidence of mural microthrombi” value in series [1] was “decreased”. Besides, the “lumen area of test region versus normal control segment of the same artery” value in series [1] was “approximately two times as large”. Also, the “luminal area versus other test agents or controls” value in series [1] was “larger luminal area”. Also, the “percent change in treated vs. normal luminal area (increase)” value in series [1] is recorded as “≈ 140%”. In series [1], the “toxicity to the vascular smooth muscle cells” value is listed as “appeared to be toxic to the vascular smooth muscle cells”. For the same compound, the “± percent change in treated vs. normal luminal area” value in series [1] is on record as “≈ 20%”. The “morphological Toxicity Grade” value in series [2] (Day 3, Continuous Exposure, 1.0 μg/mL) is “+3”; in series [2] (Day 3 exposure, 7-day Recovery Post Exposure, 1.0 μg/mL) it was “+1”; in series [2] (Day 6, Continuous Exposure, 0.1 μg/mL), “+1”; in series [2] (Day 6 exposure, 7-day Recovery Post Exposure, 1.0 μg/mL), “+3”; in series [2] (Day 8, Continuous Exposure, 0.1 μg/mL) it was “+1”; in series [2] (Day 8 exposure, 7-day Recovery Post Exposure, 1.0 μg/mL), “+3”. In addition, the “morphological Toxicity Grade” value is “+1” in series [2] (Day 10, Continuous Exposure, 0.1 μg/mL) and “+3” in series [2] (Day 10 exposure, 7-day Recovery Post Exposure, 1.0 μg/mL).
